Assay results taken from patent EP4656642A1, “ESTROGEN RECEPTOR PROTEOLYSIS TARGETING CHIMERA COMPOUND AND USE THEREOF” (GAN & LEE PHARM CO., LTD, priority 2023, dated 2024).
Changes are numbered by the printed parent chain. Read-outs that look alike come from different tables or passages of the source.

How the values were obtained:
Format in all cases: cell-based
VCaP cells = test: Inhibition of proliferation of VCaP cells (WST-8, 168 hours)
Experimental: Test Example 7 Inhibitory activity of the compounds disclosed in the present disclosure on the proliferation of VCaP cells
VCaP cells (ATCC, CRL-2876) were cultured in DMEM (Gibco, 11995-065) complete medium containing 10% fetal bovine serum (Hyclone, SH30406.05). On the first day of the experiment, VCaP cells were inoculated in 96-well plates at a density of 15,000 cells/well using DMEM medium containing 10% fetal bovine serum, with 100µL of cell suspension per well, and placed in a cell culture incubator with 5% CO2 at 37°C overnight. […] The compound concentrations were prepared in complete DMEM medium and serially diluted 5-fold starting from 10 µM, resulting in a total of nine concentration points. Wells receiving 100 µL of DMEM medium containing 10% FBS only were used as blank controls. The plates were incubated at 37°C in a 5% CO2 incubator for 168 hours.

LNCAP FGC cells = test: Inhibition of LNCAP cell proliferation (WST-8, 96 hours)
Experimental: Test Example 8 Inhibitory activity of the compounds disclosed in the present disclosure on LNCAP cell proliferation
LNCAP FGC cells (ATCC, CLR-1740) were cultured in RPMI 1640 (ATCC, 30-2001) complete medium containing 10% fetal bovine serum (Hyclone, SH30406.05). On the first day of the experiment, LNCaP FGC cells were inoculated in 96-well plates at a density of 5,000 cells/well using RPMI 1640 medium containing 10% fetal bovine serum, with 100µL of cell suspension per well, and placed in a cell culture incubator with 5% CO2 at 37°C overnight. […] The compound concentrations were prepared in complete […] medium and serially diluted 5-fold starting from 10 µM, resulting in a total of nine concentration points. Wells receiving 100 µL of RPMI 1640 medium containing 10% FBS only were used as controls. The plates were incubated at 37°C in a 5% CO2 incubator for 96 hours.

AR protein [1] = target: T1, AR protein (Homo sapiens, UniProt P10275, T878A); test: Degradation of AR protein in LNCAP cells (Western blot, 8 h); conditions: LNCaP FGC cells
T1 construct: host or cells: LNCaP FGC
T1 sequence (P10275 1-920 T878A): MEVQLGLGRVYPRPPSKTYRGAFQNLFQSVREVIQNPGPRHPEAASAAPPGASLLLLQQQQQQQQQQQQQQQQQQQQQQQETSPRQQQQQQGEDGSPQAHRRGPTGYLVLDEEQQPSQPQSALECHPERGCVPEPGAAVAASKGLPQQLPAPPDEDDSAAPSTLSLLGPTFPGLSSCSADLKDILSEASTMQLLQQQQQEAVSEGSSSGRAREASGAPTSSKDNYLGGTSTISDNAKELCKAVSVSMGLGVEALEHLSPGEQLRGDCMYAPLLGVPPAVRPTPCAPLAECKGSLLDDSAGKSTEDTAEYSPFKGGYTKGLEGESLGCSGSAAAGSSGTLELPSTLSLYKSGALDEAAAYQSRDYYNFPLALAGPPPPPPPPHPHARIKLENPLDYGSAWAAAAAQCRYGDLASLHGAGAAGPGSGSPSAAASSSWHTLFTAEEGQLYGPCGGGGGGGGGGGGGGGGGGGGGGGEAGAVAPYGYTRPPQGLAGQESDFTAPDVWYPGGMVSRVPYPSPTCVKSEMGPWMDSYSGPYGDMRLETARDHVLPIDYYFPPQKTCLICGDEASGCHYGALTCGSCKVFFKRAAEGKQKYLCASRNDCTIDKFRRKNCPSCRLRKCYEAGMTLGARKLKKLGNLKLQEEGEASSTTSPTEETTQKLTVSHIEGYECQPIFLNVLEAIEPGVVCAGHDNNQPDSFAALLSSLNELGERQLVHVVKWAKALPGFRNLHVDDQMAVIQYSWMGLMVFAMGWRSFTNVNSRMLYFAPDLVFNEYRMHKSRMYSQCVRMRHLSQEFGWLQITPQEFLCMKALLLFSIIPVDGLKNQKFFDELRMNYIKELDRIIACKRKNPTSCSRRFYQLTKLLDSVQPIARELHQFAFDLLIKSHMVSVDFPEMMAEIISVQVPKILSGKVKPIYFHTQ
Experimental: After 8 h, the culture medium was discarded, and the cells were washed with PBS. After the cells were washed with PBS, RIPA lysis buffer containing 1% Protease Inhibitor Cocktail was added, and the total protein extract was obtained after lysis and centrifugation, and the protein concentration in the extract was detected by BCA method. Protein electrophoresis was carried out by SDS-PAGE, after which the proteins were transferred to PVDF (Millipore Sigma Catalog No. PSRP010R5) membrane by 100V constant voltage electrotransfer for 60 min, and the PVDF membrane was placed in 1×TBST solution with 5% milk and blocked at room temperature for 1h. […] The primary antibody solution was discarded, and the PVDF membrane was washed three times with 1× TBST for 5 min each. […] The secondary antibody solution was discarded, and the PVDF membrane was washed three times with 1× TBST for 5 min each. Western membrane imaging was performed using a dual-color infrared laser imaging system (Licor catalog number Odyssey CLX). Bands were analyzed in grayscale using the software Image Studio. For each sample, GAPDH protein bands were detected as internal reference. The degradation rates of the AR protein for the compounds and positive control sample were calculated based on the grayscale of the protein bands.

AR protein [2] = target: T2, AR protein (Homo sapiens, UniProt P10275); conditions: 8 h
T2 construct: host or cells: VCaP
T2 sequence (P10275 1-920): T1 sequence (P10275 1-920 T878A) with A878T
Experimental: Test Example 9 Degradation activity of the compounds disclosed in the present disclosure against AR protein in VCAP cells (cell source: ATCC)
AR-positive human prostate cancer cells, VCaP, were inoculated in six-well microplates (Thermo Catalog No. 140675) in DMEM (GiBco Catalog No. 11995-065) containing 10% FBS (Hyclone Catalog No. SH30406.05) at a density of 3 × 10^5 cells/well. […] After 8 h, the culture medium was discarded, and cells were washed with PBS, then RIPA lysis buffer containing 1% Protease Inhibitor Cocktail was added, and the total protein extract was obtained after lysis and centrifugation, and the protein concentration in the extract was detected by BCA method. Protein electrophoresis was carried out by SDS-PAGE, after which the protein was transferred to PVDF (Millipore Sigma catalog number PSRP010R5) membrane by 100V constant-voltage electrotransfer for 60 min, and the PVDF membrane was placed in 1×TBST solution with 5% milk and blocked at room temperature for 1 h. The primary antibody solution (Anti-Androgen receptor, Cell Signaling Technology Catalog No. 5153S; 1: 2000 dilution) was prepared and incubated overnight at 4°C. The primary antibody solution was discarded, and the PVDF membrane was washed three times with 1× TBST for 5 min each. The secondary antibody solution (Thermo catalog number SA5-35571; 1:7500 dilution) was prepared, and the secondary antibody dilution was incubated at room temperature for 1h. The secondary antibody solution was discarded, and the PVDF membrane was washed three times with 1×TBST for 5 min each. Western membrane imaging was performed using a dual-color infrared laser imaging system (Licor catalog number Odyssey CLX). Bands were analyzed in grayscale using the software Image Studio. For each sample, GAPDH protein bands were detected as internal reference. The degradation rates of the AR protein for the compounds and positive control sample were calculated based on the grayscale of the protein bands.

[3] = LNCAP FGC cells, 96 hours, WST-8

| Structure (SMILES) | IC50 (VCaP cells; VCaP cells, 168 hours, WST-8) [µM] | IC50 (LNCAP FGC cells; [3]) [µM] | Degradation rates of the AR protein in LNCAP cells, 10 nM (%) (AR protein [1]) | Degradation rates of the AR protein in LNCAP cells, 100 nM (%) (AR protein [1]) | IC50 (VCaP cells) [µM] | IC50 (LNCAP FGC cells) [µM] | Degradation rates of the AR protein in VCAP cells, 0.5 nM (AR protein [2]) [%] | Degradation rates of the AR protein in VCAP cells, 5 nM (AR protein [2]) [%] |
| --- | --- | --- | --- | --- | --- | --- | --- | --- |
| COc1cc(O[C@H]2CC[C@H](NC(=O)c3ccc(N4CCC(CN5CCC6(CC5)COc5c6ccc6c5C(=O)N(C5CCC(=O)NC5=O)C6)(OC)CC4)nn3)CC2)ccc1C#N (relative stereo) [2-264] | 0.003 | 33.6 | 52 | 71 | – | – | – | – |
| COC1(CN2CCC3(CCc4cc5c(cc4O3)C(=O)N(C3CCC(=O)NC3=O)C5)CC2)CCN(c2ccc(N3CCC4(CC3)C[C@H](C)N(c3ccc(C#N)c(Cl)c3)C4)cc2)CC1 (stereo partly drawn) [2-99] | – | – | – | – | 0.007 | 2.71 | – | – |
| N#Cc1ccc(O[C@H]2CC[C@H](NC(=O)c3ccc(N4CCC(CN5CCC6(CC5)COc5c6ccc6c5C(=O)N(C5CCC(=O)NC5=O)C6)CC4)nn3)CC2)cc1Cl (relative stereo) [2-313] | – | 34.3 | 75 | 79 | – | – | 78 | 89 |
| C[C@H]1CC2(CCN(c3ccc(N4CCC(C)(CN5CCC6(CCc7cc8c(cc7O6)C(=O)N(C6CCC(=O)NC6=O)C8)CC5)CC4)cc3)CC2)CN1c1ccc(C#N)c(Cl)c1 (stereo partly drawn) [2-101] | – | – | – | – | 0.01 | 5.08 | – | – |
| COc1cc(O[C@H]2CC[C@H](NC(=O)c3ccc(N4CCC(CN5CCC6(CC5)COc5c6ccc6c5C(=O)N(C5CCC(=O)NC5=O)C6)CC4)nn3)CC2)ccc1C#N (relative stereo) [2-314] | – | 42.4 | 69 | 76 | – | – | 86 | 91 |
